Reference: publication PMC7217877, “N-AS-triggered SPMs are direct regulators of microglia in a model of Alzheimer’s disease” (Nature Communications, 2020)
“And” between values parts separate entries of the source, which are not always exact repeats. Equal entries are not always repeated.

Target: T1, COX2 (Homo sapiens, UniProt P35354)
T1 sequence (P35354 18-604): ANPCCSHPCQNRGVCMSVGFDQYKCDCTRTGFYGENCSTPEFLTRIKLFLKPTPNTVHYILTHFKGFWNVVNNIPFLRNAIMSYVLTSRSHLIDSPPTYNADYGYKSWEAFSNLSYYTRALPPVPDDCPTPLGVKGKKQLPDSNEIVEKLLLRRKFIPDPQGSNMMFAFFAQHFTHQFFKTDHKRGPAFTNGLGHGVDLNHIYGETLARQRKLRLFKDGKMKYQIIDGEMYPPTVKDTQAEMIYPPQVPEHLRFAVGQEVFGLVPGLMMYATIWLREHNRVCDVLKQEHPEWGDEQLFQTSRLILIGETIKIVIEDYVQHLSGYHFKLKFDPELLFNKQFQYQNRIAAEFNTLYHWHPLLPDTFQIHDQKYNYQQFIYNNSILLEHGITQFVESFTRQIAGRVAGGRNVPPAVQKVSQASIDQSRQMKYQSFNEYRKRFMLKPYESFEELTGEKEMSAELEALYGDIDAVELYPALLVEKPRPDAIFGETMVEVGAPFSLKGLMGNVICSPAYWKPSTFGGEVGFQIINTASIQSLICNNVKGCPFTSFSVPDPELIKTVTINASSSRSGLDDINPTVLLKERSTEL
Assay: lipid mediator and SPM biosynthesis by recombinant COX2 with 5-LOX (LC-MS/MS)
Format: biochemical
Parameters: purchased Cayman 60122
Details: for 11-HETE, Product (%) / 15-HETE, Product (%) / 15R-LXA4, Product (%) / PGH2, Product (%): AA; for 11-HETE, Product (%) / 15-HETE, Product (%) / 15R-LXA4, Product (%) / PGH2, Product (%) / 13-HDHA, Product (%) / 17-HDHA, Product (%) / RvD1, Product (%) / 11-HEPE, Product (%) / 15-HEPE, Product (%) / 18-HEPE, Product (%) / RvE1, Product (%): acetylated huCOX2, mean±s.e.m., n=6; for 15R-LxA4 quantification (Fig 2c) / RvD1 quantification (Fig 2c) / RvE1 quantification (Fig 2c): Control COX2 + 5-LOX, replicates; for 13-HDHA, Product (%) / 17-HDHA, Product (%) / RvD1, Product (%): DHA; for 11-HEPE, Product (%) / 15-HEPE, Product (%) / 18-HEPE, Product (%) / RvE1, Product (%): EPA
Description: Lipid mediators metabololipidomics were performed according to previously described procedures with minor modifications[4],[30]. To confirm the biosynthesis of lipid mediators by recombinant COX2 treated with N-AS or aspirin, 10 U of human recombinant COX2 (Cayman, 60122) was incubated in the presence of 500 μM aspirin (Sigma-Aldrich, A5376) or N-AS (Sigma-Aldrich, 01912) at 37 °C for 30 min. The enzyme was filtered with a Microcon column (Millipore) to remove unreacted aspirin or N-AS and was then resuspended in 0.1 M Tris-HCl (pH 8.0). Next, 500 μM phenol (Sigma-Aldrich) and 1 μM hematin-porcine (Sigma-Aldrich) were added immediately before incubation with 100 μM AA, EPA or DHA (Cayman) at 37 °C for 2 h, respectively. The mixtures were incubated with 30 U of human 5-LOX (Cayman, 60402) containing 2 mM CaCl2 (Sigma-Aldrich), 1 mM ATP (Amresco) and 5 μM 13-HpODE (Cayman) as activators. Also, to validate the importance of residue S565 for N-AS-acetylation of COX2 and production of SPMs, 10 U of the COX2 S565A mutant was used in the above-described method. In addition, to confirm SPM generation in neurons and microglia, these cells were treated with Aβ and sonicated in neuronal and glial culture medium. […] To evaluate the relationship of N-AS and SPM production in microglia, microglia were isolated from WT, APP/PS1, and APP/PS1 treated with N-AS mice at 9 months of age. The microglia were sonicated and resuspended in microglial culture medium. The supernatants were incubated with 100 μM AA, EPA, and DHA (Cayman) at 37 °C for 2 h. A 50 μl aliquot of the mixture from each cell lysate was added to a 250 μl aliquot of 1 ng ml^−1 of 15S-LXA4-d5 (internal standard, Cayman) methanol solution. After vortexing for 10 min and centrifuging at 15,974×g for 5 min, the supernatant was subjected to the analysis of the lipid mediators using an Agilent 6470 Triple Quad LC-MS/MS system (Agilent) coupled to an Agilent 1290 HPLC system. Chromatographic separation was achieved using a Synergi Polar RP (4 μm, 2.0 mm i.d. × 150 mm, Phenomenex). Analytes were eluted with a mobile phase consisting of water: formic acid (100:0.1 v/v) (phase A) and methanol: formic acid (100:0.1 v/v) (phase B) in gradient elution mode for 23 min a flow rate of 0.2 ml min^−1. The elution gradient was as follows: from 0 to 0.1 min the content of phase A was 37% and the content of phase A was decreased to 10% and maintained for 5.5 min. The content of phase A was increased back to 37% at 6.0 min and maintained for 23 min. Quantification was carried out using MRM in negative ionization mode and collision energy of 10–15 eV. The mass transition from Q1 to Q3 is shown in Supplementary Table 2. In this study, the peak areas for all components were automatically integrated using MassHunter B 06.00.

Row | Compound | 11-HETE, Product (%) | 15-HETE, Product (%) | 15R-LXA4, Product (%) | PGH2, Product (%) | 15R-LxA4 quantification (Fig 2c) | RvD1 quantification (Fig 2c) | RvE1 quantification (Fig 2c) | 13-HDHA, Product (%) | 17-HDHA, Product (%) | RvD1, Product (%) | 11-HEPE, Product (%) | 15-HEPE, Product (%) | 18-HEPE, Product (%) | RvE1, Product (%)
1 | CC(=O)Oc1ccccc1C(=O)O [Aspirin, acetylsalicylic acid, reference compound] | 13.8±0.41 | 9.5±0.22 | 4.2±0.18 | 72.3±0.68 | 8734.32 and 9047.96 and 8672.38 and 8679.89 and 12017 and 8786.05 and 9112.59 | 529.99 and 519.44 and 632.8 and 532.11 and 521.52 | 3237.03 and 3196.43 and 4589.07 and 4937.89 and 3246.64 and 3210.17 | 5.0±0.15 | 94.6±0.22 | 0.4±0.01 | 27.3±1.40 | 5.8±0.06 | 61.3±0.32 | 3.1±0.25
2 | CCCCCCCCCCCCC/C=C/[C@@H](O)[C@H](CO)NC(C)=O [N-AS, N-((2S,3R,E)-1,3-Dihydroxyoctadec-4-en-2-yl)acetamide] | 13.1±0.55 | 13.3±0.59 | 4.8±0.23 | 69.7±1.08 | 10460.6 and 9709.13 and 8768.93 and 9235.99 and 8577.96 and 10535.3 | 670.43 and 829.94 and 668.56 and 744.28 and 781.34 and 739.49 and 733.66 | 4023.99 and 3322.2 and 4006.77 and 4517.41 and 3768.91 and 4998.35 and 3336.48 | 3.6±0.09 | 95.8±0.19 | 0.53±0.09 | 26.8±0.41 | 5.8±0.09 | 64.0±0.25 | 3.3±0.09
